What follows are molecules tested against Cdk2/Cyclin A (Homo sapiens, UniProt P24941) (assay: Inhibition assay of Cdk2/Cyclin A activity (SPA)). Details: 10 μM ATP, biotinylated histone H1 substrate, read-out: IC50 against Cdk2/Cyclin A.
Assay type: biochemical
Experimental: The inhibiting activity of putative Cdk/Cyclin inhibitors and the potency of selected compounds is determined through a method of assay based on the use of the SPA technology (Amersham Pharmacia Biotech).
The assay consists of the transfer of radioactivity labelled phosphate moiety by the kinase to a biotinylated substrate. The resulting 33P-labelled biotinylated product is allowed to bind to streptavidin-coated SPA beads (biotin capacity 130 pmol/mg), and light emitted is measured in a scintillation counter.
Inhibition Assay of Cdk2/Cyclin A Activity
Kinase reaction: 4 μM in house biotinylated histone H1 (Sigma # H-5505) substrate, 10 μM ATP (0.1 microCi P^33γ-ATP), 4.2 ng Cdk2/Cyclin A complex, inhibitor in a final volume of 30 μl buffer (TRIS HCl 10 mM pH 7.5, MgCl2 10 mM, DTT 7.5 mM+0.2 mg/ml BSA) were added to each well of a 96 U bottom. After 30 min at r.t. incubation, reaction was stopped by 100 μl PBS+32 mM EDTA+0.1% Triton X-100+500 μM ATP, containing 1 mg SPA beads. Then a volume of 110 μl is transferred to Optiplate. After 20 min. incubation for substrate capture, 100 μl 5M CsCl were added to allow statification of beads to the top of the plate and let stand 4 hours before radioactivity counting in the Top-Count instrument
IC50 determination: inhibitors were tested at different concentrations ranging from 0.0015 to 10 μM. Experimental data were analyzed by the computer program GraphPad Prizm using the four parameter logistic equation: y=bottom+(top−bottom)/(1+10ˆ((log IC50−x)*slope)) where x is the logarithm of the inhibitor concentration, y is the response; y starts at bottom and goes to top with a sigmoid shape. Ki Calculation: Experimental method: Reaction was carried out in buffer (10 mM Tris, pH 7.5, 10 mM MgCl2, 0.2 mg/ml BSA, 7.5 mM DTI) containing 3.7 nM enzyme, histone and ATP (constant ratio of cold/labeled ATP 1/3000). Reaction was stopped with EDTA and the substrate captured on phosphomembrane (Multiscreen 96 well plates from Millipore). After extensive washing, the multiscreen plates are read on a top counter. Control (time zero) for each ATP and histone concentrations was measured. Experimental design: Reaction velocities are measured at different four ATP, substrate (histone) and inhibitor concentrations. An […] concentration matrix was designed around the respective ATP and substrate Km values, and the inhibitor IC50 values (0.3, 1, 3, 9 fold the Km or IC50 values). A preliminary time course experiment in the absence of inhibitor and at the different ATP and substrate concentrations allow the selection of a single endpoint time (10 min) in the linear range of the reaction for the Ki determination experiment. Kinetic parameter estimates: Kinetic parameters were estimated by simultaneous nonlinear least-square regression using [Eq.1] […]
With `CC(C)(C)c1ccc(C(=O)Nc2[nH]nc3c2CN(C(=O)c2ccncc2)C3)cc1` [N-{5-(pyridine-4-carbonyl)-4,6-dihydropyrrolo[3,4-c]pyrazol-3-yl}-4-tertbutylbenzamide] the IC50 was over 10000 nM. Work on `CC(C)(C)c1ccc(C(=O)Nc2[nH]nc3c2CN(C(=O)c2cnccn2)C3)cc1` [N-{5-(pyrazine-2-carbonyl)-4,6-dihydropyrrolo[3,4-c]pyrazol-3-yl}-4-tertbutylbenzamide] yielded an IC50 of 2500 nM. Work on “3-(4-tert-butyl-benzamido)-5-[(2-propylamino)pyrimidin-4-yl]-4,6-dihydropyrrolo[3,4-c]pyrazole” yielded an IC50 of 220 nM. `CC(C)(C)c1ccc(C(=O)Nc2n[nH]c3c2CN(c2ccnc(N4CCOCC4)n2)C3)cc1` [3-(4-tert-butyl-benzamido)-5-[2-(N-morpholino)pyrimidin-4-yl]-4,6-dihydropyrrolo[3,4-c]pyrazole] was tested, and the IC50 was 340 nM.

From patent US20070037790A1, “Bicyclo-pyrazole derivatives active as kinase inhibitors, process for their preparation and pharmaceutical compositions comprising them” (priority 2003, published 2007)
